The results in this text go back to ChEMBL document CHEMBL1125162, “High-potency dipeptide sweeteners. 2. L-aspartylfuryl-, thienyl-, and imidazolylglycine esters” (J Med Chem, 1990).

This test is described as follows: Sweetness potency compared to 5-10% sucrose. The format is functional.
For `CC12CCC(C1)C(C)(C)C2OC(=O)C(NC(=O)[C@@H](N)CC(=O)O)c1cccs1` (some centres not stated), the Potency came to 2000.

On to `COC(=O)C(NC(=O)[C@@H](N)CC(=O)O)C(=O)O[C@@H]1C(C)(C)C2CC[C@]1(C)C2` (stereo in doubt; 2), for which the Potency was found to be 30000.

`CC1(C)C2CC[C@](C)(C2)[C@@H]1OC(=O)C(NC(=O)[C@@H](N)CC(=O)O)c1ccccc1` (stereo in doubt; 5) registered a Potency of 3700.

`CC12CCC(C1)C(C)(C)C2OC(=O)C(NC(=O)[C@@H](N)CC(=O)O)C1CCCO1` (some centres not stated) showed a Potency of 0.

Take `CC12CCC(C1)C(C)(C)C2OC(=O)C(NC(=O)[C@@H](N)CC(=O)O)c1ccsc1` (some centres not stated): the Potency came to 2300.

`CC1(C)C2CC[C@](C)(C2)[C@@H]1OC(=O)C(NC(=O)[C@@H](N)CC(=O)O)c1ccccc1` (stereo in doubt; 4) gave a Potency of 1200.

Consider `CC12CCC(C1)C(C)(C)C2OC(=O)C(Cc1cccs1)NC(=O)[C@@H](N)CC(=O)O` (some centres not stated), for which the Potency turned out to be 0.

Regarding `CC12CCC(C1)C(C)(C)[C@H]2OC(=O)[C@H](NC(=O)[C@@H](N)CC(=O)O)c1ccco1` (some centres not stated), the Potency is 16500.

`CC1CCC(C)C1OC(=O)C(NC(=O)[C@@H](N)CC(=O)O)c1ccco1` (some centres not stated) registered a Potency of 400.

Compound `CC12CCC(C1)C(C)(C)C2OC(=O)C(NC(=O)[C@@H](N)CC(=O)O)c1c[nH]cn1` (some centres not stated) came in with a Potency of 350.

`COC(=O)C(NC(=O)[C@@H](N)CC(=O)O)C(=O)O[C@@H]1C(C)(C)C2CC[C@]1(C)C2` (stereo in doubt; 3) registered a Potency of 50000.

`CC12CCC(C1)C(C)(C)[C@@H]2OC(=O)C(NC(=O)[C@@H](N)CC(=O)O)c1ccco1` (some centres not stated): the Potency is 630.
